These are literature values, as cited in paper PMC8696521 (RSC Advances, 2021).

Where two headings read alike, the source gives them in different places.

As usually defined, the IC50 is the concentration that inhibits the measured activity by half.

The test system of one series is ACE. The note with it: for Category of ACEI peptide by interaction with ACE: reduced IC50 values following incubation with ACE.
For series [1] the following is noted: peptide from P. fucata muscle.

On to IKPVA, for which the “Category of ACEI peptide by interaction with ACE” value in the series with ACE is reported as “pro-drug substrates”. With VVSLSIPR, in the series on ACE, the ACE inhibition pattern result is listed as “competitive inhibitors”. On to LSGYGP, for which the ACE inhibition pattern result in the series with ACE is on record as “noncompetitive”.

With LIVT, in the series on ACE (read-out: ACEI IC50), the IC50 is 110 nM. With GVGSPY, in the series on ACE (from pearl oyster shell protein hydrolysate), the “ACEI IC50” value was 5.82 µg/mL. Consider IKPVQ, for which the “Category of ACEI peptide by interaction with ACE” value in the series with ACE was “pro-drug substrates”. Take FHAPWK: in the series on ACE, the ACE inhibition pattern result is given as “competitive inhibitors”. Regarding WVYY, the ACE inhibition pattern entry in the series with ACE (hemp seed protein hydrolysate peptides) is “mixed-mode type of ACE inhibition”. As to GAGLPGKRER, the Antioxidant activity entry in series [1] is “strong antioxidant activity”.
